{"source": "patent US8835640B1", "about": "“Nicotine derivatives” (priority 2011, dated 2014)", "key": {"[1]": {"system": "fungal cultures (Candida albicans & Cryptococcus neoformans)", "assay": "Kirby-Bauer disc diffusion, fungi", "assay_type": "cell-based"}, "Male Wistar rats": {"system": "Male Wistar rats", "assay": "Eddy Hot Plate method", "assay_type": "in vivo", "conditions": "0.5 mg/kg and 1 mg/kg s.c., 55±0.5° C., compared to pentazocine 20 mg/kg s.c.", "procedure": "Male Wistar rats initially weighing 180-200 g were divided into the following groups of six animals each as follows: • Experiment-I: • 1. Group-I: Control—10% Dimethyl sulfoxide (DMSO) (0.5 ml s.c) • 2. Group-II: Standard—Pentazocine (20 mg/kg body weight, s.c.) • 3. Group-III: Compound-ARP100102 (0.5 mg/kg body weight, s.c.) • Experiment-II: • Same as Experiment I except Group III dosage was 1 mg/kg body weight. • The hot plate method was originally developed by Woolfe and MacDonald (1944). The paws of rat are very sensitive to heat at temperatures which are not damaging to the skin. The response is in the form of jumping, withdrawal of paws or licking of the paws (Eddy and Leimback, 1953). The animals were placed on Eddy's hot plate at a temperature of 55±0.5° C. […] Reaction time and the type of response were noted using a stopwatch. The latency was recorded before and after 30, 60, 90 and 120 minutes following s.c. injection of test compounds (0.5 mg and 1 mg·kg), standard drug (pentazocine) and control vehicle respectively. The dose selection of the test compounds was based on the literature of nicotine (0.32-1.6 mg/kg s.c.). Average reaction time was then calculated and the percentage variation calculated using the following ratio: Percentage protection=Drug latency−Baseline latency×100Baseline latency"}, "Streptococcus mutans": {"system": "Streptococcus mutans", "assay": "Kirby Bauer disc diffusion, Streptococcus mutans", "assay_type": "cell-based"}, "Corynebacterium": {"system": "Corynebacterium", "assay": "Kirby Bauer disc diffusion, Corynebacterium", "assay_type": "cell-based"}, "[2]": {"system": "M. tuberculosis (H37RV Strain) ATCC 25177", "assay": "Anti-TB activity, microplate Alamar Blue assay (MABA)", "assay_type": "cell-based, Mycobacterium Tuberculosis", "conditions": "for MIC: Mycobacterium tuberculosis, 120 h, read-out: MIC (minimum inhibition concentration); for MIC (minimum inhibition concentration): lowest drug concentration preventing colour change blue to pink, 37° C., five days, tested 100 to 0.2 μg/ml"}, "[3]": {"system": "Gram positive bacteria (Staphylococcus aureus, Enterococcus faecalis), Gram negative bacteria (E. Coli and Pseudomonas aeruginosa)", "assay": "Kirby-Bauer disc diffusion, bacteria", "assay_type": "cell-based"}, "Male Albino Mice": {"system": "Male Albino Mice", "assay": "Acetic Acid-Induced Writhing Response test", "assay_type": "in vivo", "procedure": "Group-I: Control-Normal saline (0.1 ml i.p./10 gm) • 2. Group-II: Diclofenac (10 mg/kg body weight, i.p.) • 3. Group-V: Compound-ARP100120 (3 mg/kg body weight, i.p.) • The number of writhes (abdominal muscular contractions), stretching of the hind limbs and trunk twisting were counted 5 minutes after the injection of 1% acetic acid (v/v, 0.1 mL/10 g body weight, i.p.). The data collected represented the total number of writhes observed in duration of 10 minutes (5-15 minutes after the injection). Percentage inhibition was then calculated. Percentage inhibition ═(N−N^t/N)×100, where N is the average number of writhing of control group and N^t is the average number of writhing of test group. • Results are as follows: […]"}}}
{"smiles": "CC(=O)c1ccc(-c2cncc(C(=O)C3CCN(C)C3=O)c2)s1", "note": "(stereo not shown) [ARP100101, 3-(5-(5-acetylthiophen-2-yl)nicotinoyl)-1-methylpyrrolidin-2-one]", "values": [{"measurement": "antifungal activity (zone of inhibition, disc diffusion)", "setting": "[1]; 50 μg", "result": "exhibit antifungal activity"}, {"measurement": "antifungal activity (zone of inhibition, disc diffusion)", "setting": "[1]; 100 μg", "result": "exhibit antifungal activity"}]}
{"smiles": "CN1CCC(C(=O)c2cncc(-c3ccc(F)cc3)c2)C1=O", "note": "(stereo not shown) [ARP100102, 3-(5-(4-fluorophenyl)nicotinoyl)-1-methylpyrrolidin-2-one]", "values": [{"measurement": "analgesic activity (reaction time in hot plate test)", "setting": "Male Wistar rats", "result": "demonstrate analgesic activity"}, {"measurement": "antibacterial activity against Streptococcus mutans (inhibition zone)", "setting": "Streptococcus mutans; 50 μg", "result": "good antibacterial activity"}, {"measurement": "antibacterial activity against Streptococcus mutans (inhibition zone)", "setting": "Streptococcus mutans; 100 μg", "result": "good antibacterial activity"}, {"measurement": "antifungal activity (zone of inhibition, disc diffusion)", "setting": "[1]; 5 μg", "result": "exhibit antifungal activity"}, {"measurement": "antifungal activity (zone of inhibition, disc diffusion)", "setting": "[1]; 25 μg", "result": "exhibit antifungal activity"}, {"measurement": "antifungal activity (zone of inhibition, disc diffusion)", "setting": "[1]; 50 μg", "result": "exhibit antifungal activity"}, {"measurement": "antifungal activity (zone of inhibition, disc diffusion)", "setting": "[1]; 100 μg", "result": "exhibit antifungal activity"}, {"measurement": "antibacterial activity against Corynebacterium (inhibition zone)", "setting": "Corynebacterium; 50 μg", "result": "good antibacterial activity"}, {"measurement": "antibacterial activity against Corynebacterium (inhibition zone)", "setting": "Corynebacterium; 100 μg", "result": "good antibacterial activity"}, {"measurement": "MIC", "setting": "[2]", "result": "≤ 0.05", "unit": "µg/mL"}]}
{"smiles": "Cc1cccc(-c2cncc(C(=O)C3CCN(C)C3=O)c2)c1", "note": "(stereo not shown) [ARP100104, 1-methyl-3-(5-m-tolylnicotinoyl)pyrrolidin-2-one]", "values": [{"measurement": "antifungal activity (zone of inhibition, disc diffusion)", "setting": "[1]; 100 μg", "result": "exhibit antifungal activity"}]}
{"smiles": "CN1CCC(C(=O)c2cncc(-c3ccc(Cl)cc3)c2)C1=O", "note": "(stereo not shown) [ARP100105, 3-(5-(4-chlorophenyl)nicotinoyl)-1-methylpyrrolidin-2-one]", "values": [{"measurement": "antifungal activity (zone of inhibition, disc diffusion)", "setting": "[1]; 50 μg", "result": "both antibacterial and antifungal activity"}, {"measurement": "antifungal activity (zone of inhibition, disc diffusion)", "setting": "[1]; 100 μg", "result": "both antibacterial and antifungal activity"}, {"measurement": "antibacterial activity (zone of inhibition, disc diffusion)", "setting": "[3]; 50 μg", "result": "both antibacterial and antifungal activity"}, {"measurement": "antibacterial activity (zone of inhibition, disc diffusion)", "setting": "[3]; 100 μg", "result": "both antibacterial and antifungal activity"}]}
{"smiles": "CN1CCC(C(=O)c2cncc(-c3ccc(C=O)cc3)c2)C1=O", "note": "(stereo not shown) [ARP100106, 4-(5-(1-methyl-2-oxopyrrolidine-3-carbonyl)pyridin-3-yl)benzaldehyde]", "values": [{"measurement": "antifungal activity (zone of inhibition, disc diffusion)", "setting": "[1]; 100 μg", "result": "both antibacterial and antifungal activity"}, {"measurement": "antibacterial activity (zone of inhibition, disc diffusion)", "setting": "[3]; 100 μg", "result": "both antibacterial and antifungal activity"}]}
{"smiles": "COc1ccc(-c2cncc(C(=O)C3CCN(C)C3=O)c2)cc1", "note": "(stereo not shown) [ARP100108, 3-(5-(4-methoxyphenyl)nicotinoyl)-1-methylpyrrolidin-2-one]", "values": [{"measurement": "antifungal activity (zone of inhibition, disc diffusion)", "setting": "[1]; 100 μg", "result": "exhibit antifungal activity"}]}
{"smiles": "CN1CCC(C(=O)c2cncc(-c3cccc(F)c3)c2)C1=O", "note": "(stereo not shown) [ARP100111, 3-(5-(3-fluorophenyl)nicotinoyl)-1-methylpyrrolidin-2-one]", "values": [{"measurement": "antibacterial activity on both gram positive and gram negative bacteria", "setting": "[3]; 100 μg", "result": "showed antibacterial activity"}]}
{"smiles": "CN1CCC(C(=O)c2cncc(-c3ccc4ccccc4c3)c2)C1=O", "note": "(stereo not shown) [ARP100119, 1-methyl-3-(5-(naphthalen-2-yl)nicotinoyl)pyrrolidin-2-one]", "values": [{"measurement": "antifungal activity (zone of inhibition, disc diffusion)", "setting": "[1]; 50 μg", "result": "exhibit antifungal activity"}, {"measurement": "antifungal activity (zone of inhibition, disc diffusion)", "setting": "[1]; 100 μg", "result": "exhibit antifungal activity"}]}
{"smiles": "CC(=O)Oc1ccc(-c2cncc(C(=O)C3CCN(C)C3=O)c2)cc1", "note": "(stereo not shown) [ARP100120, 4-(5-(1-methyl-2-oxopyrrolidine-3-carbonyl)pyridin-3-yl)phenyl acetate]", "values": [{"measurement": "analgesic activity (writhing test)", "setting": "Male Albino Mice; 3 mg/kg i.p.", "result": "demonstrate analgesic activity"}, {"measurement": "antifungal activity (zone of inhibition, disc diffusion)", "setting": "[1]; 100 μg", "result": "exhibit antifungal activity"}]}
{"smiles": "CN1CCC(C(=O)c2cncc(-c3cccc(C=O)c3)c2)C1=O", "note": "(stereo not shown) [ARP100121, 3-(5-(1-methyl-2-oxopyrrolidine-3-carbonyl)pyridin-3-yl)benzaldehyde]", "values": [{"measurement": "antifungal activity (zone of inhibition, disc diffusion)", "setting": "[1]; 50 μg", "result": "exhibit antifungal activity"}, {"measurement": "antifungal activity (zone of inhibition, disc diffusion)", "setting": "[1]; 100 μg", "result": "exhibit antifungal activity"}]}
{"smiles": "CCCCc1cncc(C(=O)C2CCN(C)C2=O)c1", "note": "(stereo not shown) [ARP100122, 3-(5-butylnicotinoyl)-1-methylpyrrolidin-2-one]", "values": [{"measurement": "antifungal activity (zone of inhibition, disc diffusion)", "setting": "[1]; 100 μg", "result": "exhibit antifungal activity"}]}
{"smiles": "O=C(O)c1cn(C2CC2)c2cc(N3CCNCC3)c(F)cc2c1=O", "note": "[Ciprofolxacin]", "values": [{"measurement": "MIC (minimum inhibition concentration)", "setting": "[2]", "result": 3.125, "unit": "µg/mL"}]}
{"smiles": "O=C(O)Cc1ccccc1Nc1c(Cl)cccc1Cl", "note": "[Diclofenac, reference compound]", "values": [{"measurement": "Number of Writhing", "setting": "Male Albino Mice; 5-15 minutes after 1% acetic acid i.p., Diclofenac 10 mg/kg i.p., ARP100120 3 mg/kg i.p.", "result": "34.50 ± 1.586"}, {"measurement": "Percentage Inhibition (writhing)", "setting": "Male Albino Mice; versus control, Diclofenac 10 mg/kg i.p., ARP100120 3 mg/kg i.p.", "result": 26.86, "unit": "%"}]}
{"smiles": "CN1CCCC1c1cccnc1", "note": "(stereo not shown) [Nicotine]", "values": [{"measurement": "antibacterial activity (disc diffusion)", "setting": "[3]; 1000 μg/ml", "result": "did not show any antibacterial activity"}]}
{"smiles": "NC(=O)c1cnccn1", "note": "[Pyrazinamide]", "values": [{"measurement": "MIC", "setting": "[2]", "result": 3.12, "unit": "µg/mL"}]}
{"smiles": "CN[C@@H]1[C@H](O[C@H]2[C@H](O[C@H]3[C@H](O)[C@@H](O)[C@H](N=C(N)N)[C@@H](O)[C@@H]3N=C(N)N)O[C@@H](C)[C@]2(O)C=O)O[C@@H](CO)[C@H](O)[C@H]1O", "note": "[Steptomycin]", "values": [{"measurement": "MIC (minimum inhibition concentration)", "setting": "[2]", "result": 6.25, "unit": "µg/mL"}]}
